The results in this text go back to US4495104A, “Quinone carboxylic acids and ester derivatives” (Takeda Chemical Industries, Ltd., priority 1980, dated 1985).

The structures appear in SMILES notation.

One assay deals with SRS-A production. As to the kind of experiment: Inhibition of SRS-A production and release in sensitized guinea-pig lung fragments (egg albumin antigen). It is filed as cell-based, quinea-pig. The following applies: lung fragments sensitized with egg albumin, compound dissolved in ethanol or dimethyl sulfoxide, read-out: Inhibitory effect on SRS-A production (%); for inhibition at 10 µM: concentration 10 μM. The procedure: Further, we investigated the effect of the present compound (I) on the production and release of the slow reacting substance of anaphylaxis (hereinafter, SRS-A) which has been mentioned as a main factor in asthma. Thus, in accordance with the method of Orange and Moore (J. Immunol., 116, 392-397, 1976), the present compound (I) was added to a quinea-pig lung fragments sensitized with egg albumin as the antigen, and the amount of SRS-A produced and released as a consequence was assayed by the method of Brocklehurst (J. Physiol., 151, 416-435, 1960).
^(1) The compound was added as dissolved in ethanol or dimethyl
^(2) The inhibitory effect on SRSA production was expressed as the %
inhibition of production and release of SRSA.

A further assay deals with succinate oxidase. As to the kind of experiment: Mitochondrial electron-transport activity determined as succinate oxidase activity in ubiquinone-depleted enzyme preparations. The conditions noted are these: level of addition 10 n moles; ubiquinone-depleted enzyme preparation; control 19.34 ± 1.42. It is filed as biochemical. The procedure: ^(1) Ubiquinonedepleted enzyme preparations were prepared in
accordance with Lester and Fleischer (Biochem. Biophys. Acta., 47,358-377
1961). The electrontransport activity was determined based on succinate

Consider `COC1=C(OC)C(=O)C(CCCCCCCCCCCCCCCCCCCCCC(=O)O)=C(C)C1=O` [R:H, n:21, 6-(21-carboxyheneicosyl)-2,3-dimethoxy-5-methyl-1,4-benzoquinone], for which, in the assay on SRS-A production, the inhibition at 10 µM worked out at 80.5 ± 0.5%. Turning to `COC(=O)CCCCCCCCCCCCC1=C(C)C(=O)C(OC)=C(OC)C1=O` [n:12 R:CH3, 2,3-dimethoxy-6-(12-methoxycarbonyldodecyl)-5-methyl-1,4-benzoquinone], the “Succinate oxidase activity [oxygen consumption per mg enzyme protein during 1 minute (n atoms oxygen)]” value in the assay with succinate oxidase was found to be 146.10 n atoms oxygen. Regarding `COC1=C(OC)C(=O)C(CCCCCCCCCCCCC(=O)O)=C(C)C1=O` [R:H, n:12, 6-(12-carboxydodecyl)-2,3-dimethoxy-5-methyl-1,4-benzoquinone], the “Succinate oxidase activity [oxygen consumption per mg enzyme protein during 1 minute (n atoms oxygen)]” value with succinate oxidase was 96.05 n atoms oxygen. In the assay with SRS-A production (concentration 1 μM), the inhibition at 1 µM came out at 60 ± 3.3%. Moreover, the inhibition at 10 µM with SRS-A production was 87.2 ± 5.5%. As for `COC1=C(OC)C(=O)C(CCCCCCCCCCCCCCCCCC(=O)O)=C(C)C1=O` [R:H, n:17, 6-(17-carboxyheptadecyl)-2,3-dimethoxy-5-methyl-1,4-benzoquinone], in the assay with succinate oxidase, the “Succinate oxidase activity [oxygen consumption per mg enzyme protein during 1 minute (n atoms oxygen)]” value came to 112.05 n atoms oxygen. Moreover, the inhibition at 10 µM in the assay with SRS-A production worked out at 82.8 ± 4.4%.
